Measured values as given in article PMC12396409, “Screening and hit evaluation of a microbial metabolite library against the pathogenic Plasmodium falciparum and Toxoplasma gondii parasites” (International Journal for Parasitology: Drugs and Drug …, 2025).
Where a SMILES comes first, the peptide text is derived from it. [ ]: non-standard residue; d: D form. d(aIle) = CC[C@H](C)[C@@H](N)C(=O)O; Hica(2S) = CC(C)C[C@H](O)C(=O)O; NMeL = CN[C@@H](CC(C)C)C(=O)O; Hiv = CC(C)[C@H](O)C(=O)O

Legend:
[1] = system: P. falciparum 3D7 parasites; test: P. falciparum growth inhibition assay, 2-cycle (120 h treatment), delayed-death screen and dose-response; format: cell-based, Plasmodium falciparum; details: for Pf_120h_%Growth_Rep1: replicate 1; for Pf_120h_%Growth_Rep2: replicate 2
[2] = system: T. gondii RH strain (RH-Tub-eYFP) tachyzoites; test: microbe, parasite or virus in culture; format: cell-based, Toxoplasma gondii; details: 72 h; for Tg_72h_%Growth_Rep1: replicate 1; for Tg_72h_%Growth_Rep2: replicate 2
[3] = system: P. falciparum 3D7 parasites; test: P. falciparum growth inhibition assay, 1-cycle (72 h treatment), SYBR DNA staining (library screen at 2 μg/mL and dose-response); format: cell-based, Plasmodium falciparum; details: for Pf_72h_%Growth_Rep1: replicate 1; for Pf_72h_%Growth_Rep2: replicate 2
[4] = P. falciparum, 120 h, screen at 2 μg/mL
[5] = P. falciparum, 72 h, screen at 2 μg/mL
[6] = P. falciparum, 120 h, parasite screen 2 μg/mL, % growth
[7] = T. gondii, parasite screen 2 μg/mL, % growth
[8] = P. falciparum, 72 h, parasite screen 2 μg/mL, % growth
[9] = library screen at 2 μg/mL, 120 h, % growth
[10] = library screen at 2 μg/mL, % growth
[11] = library screen at 2 μg/mL, 72 h, % growth
[12] = P. falciparum 3D7, 120 h, library screen at 2 μg/mL, % growth
[13] = T. gondii RH, library screen at 2 μg/mL, % growth
[14] = P. falciparum 3D7, 72 h, library screen at 2 μg/mL, % growth
[15] = P. falciparum 3D7, 120 h, parasite screen at 2 μg/mL, % growth
[16] = T. gondii, parasite screen at 2 μg/mL, % growth
[17] = P. falciparum 3D7, 72 h, parasite screen at 2 μg/mL, % growth

Compound: CC(=O)N[C@H](COC(C)=O)[C@H](O)c1ccc([N+](=O)[O-])cc1 [Corynecin IV]
- Pf_120h_%Growth_Rep1 [1, 4]: 80.18%
- Pf_120h_%Growth_Rep2 [1, 4]: 96.02%
- Tg_72h_%Growth_Rep1 ([2]; T. gondii, screen at 2 μg/mL): 146.78%
- Tg_72h_%Growth_Rep2 ([2]; T. gondii, screen at 2 μg/mL): 106.28%
- Pf_72h_%Growth_Rep1 [3, 5]: 87.87%
- Pf_72h_%Growth_Rep2 [3, 5]: 87.15%

Compound: C=Cc1cc(OC)c2c(c1)c(=O)oc1c2cc(OC)c2c(O)ccc([C@H]3O[C@@H](C)[C@@H](O)[C@](C)(O)[C@@H]3O)c21 [Chrysomycin A]
- 2) Growth (%) at 120 h ([1]; P. falciparum, 2 μg/mL, 120 h): -1.07%
- Pf_120h_%Growth_Rep1 [1, 4]: 6.31%
- Pf_120h_%Growth_Rep2 [1, 4]: -8.44%
- Tg_72h_%Growth_Rep1 ([2]; T. gondii, screen at 2 μg/mL): 53.94%
- Tg_72h_%Growth_Rep2 ([2]; T. gondii, screen at 2 μg/mL): 65.86%
- 1) Growth (%) at 72 h ([3]; P. falciparum, 2 μg/mL, 72 h): 36.94%
- Mean ([3]; P. falciparum, 72 h, 2 μg/mL, mean of both replicates, growth (% of control)): 36.94
- Pf_72h_%Growth_Rep1 [3, 5]: 16.21%
- Pf_72h_%Growth_Rep2 [3, 5]: 57.66%

Compound: CC[C@H](C)[C@H]1NC(=O)[C@H](C(C)C)OC(=O)[C@H](CC(C)C)N(C)C(=O)[C@H](C(C)C)NC(=O)[C@H](CC(C)C)OC(=O)[C@@H](CC(C)C)NC1=O [Sporidesmolide V] (cyclo([Hica(2S)]V[NMeL][Hiv][d(aIle)][dL]))
- Pf_120h_%Growth_Rep1 [1, 6]: 158.27%
- Pf_120h_%Growth_Rep2 [1, 6]: 82.66%
- Tg_72h_%Growth_Rep1 [2, 7]: 84.27%
- Tg_72h_%Growth_Rep2 [2, 7]: 95.04%
- Pf_72h_%Growth_Rep1 [3, 8]: 8.13%
- Pf_72h_%Growth_Rep2 [3, 8]: 0.54%

Compound: CC[C@H]1OC(=O)[C@H](C)[C@@H](O[C@H]2C[C@@](C)(OC)[C@@H](O)[C@H](C)O2)[C@H](C)[C@@H](O[C@@H]2O[C@H](C)C[C@H](N(C)C)[C@H]2O)[C@](C)(O)C[C@@H](C)C(=NO)[C@H](C)[C@@H](O)[C@]1(C)O [Erythromycin A oxime]
- Pf_120h_%Growth_Rep1 [1, 9]: 78.37%
- Pf_120h_%Growth_Rep2 [1, 9]: 65.13%
- Tg_72h_%Growth_Rep1 [2, 10]: 42.42%
- Tg_72h_%Growth_Rep2 [2, 10]: 49.55%
- Pf_72h_%Growth_Rep1 [3, 11]: 85.19%
- Pf_72h_%Growth_Rep2 [3, 11]: 75.74%

Compound: CNC1=NC(=O)C(C(C)c2c[nH]c3ccccc23)O1 (stereo not drawn) [BIA-I1040]
- Pf_120h_%Growth_Rep1 [1, 12]: 17.78%
- Pf_120h_%Growth_Rep2 [1, 12]: 16.99%
- Tg_72h_%Growth_Rep1 [2, 13]: 45.17%
- Tg_72h_%Growth_Rep2 [2, 13]: 47.91%
- Pf_72h_%Growth_Rep1 [3, 14]: 33.91%
- Pf_72h_%Growth_Rep2 [3, 14]: 55.84%

Compound: COc1ccc(C2CC(=O)c3c(O)cc(OC4OC(COC5OC(C)C(O)C(O)C5O)C(O)C(O)C4O)cc3O2)cc1O (stereo not drawn) [BIA-H1766]
- Pf_120h_%Growth_Rep1 [1, 12]: 111.90%
- Pf_120h_%Growth_Rep2 [1, 12]: 121.98%
- Tg_72h_%Growth_Rep1 [2, 13]: 124.64%
- Tg_72h_%Growth_Rep2 [2, 13]: 85.96%
- Pf_72h_%Growth_Rep1 [3, 14]: 83.53%
- Pf_72h_%Growth_Rep2 [3, 14]: 99.72%

Compound: Oc1cc(O)cc(O)c1 [BIA-P1379]
- Pf_120h_%Growth_Rep1 [1, 15]: 15.44%
- Pf_120h_%Growth_Rep2 [1, 15]: 11.00%
- Tg_72h_%Growth_Rep1 [2, 16]: 123.57%
- Tg_72h_%Growth_Rep2 [2, 16]: 91.75%
- Pf_72h_%Growth_Rep1 [3, 17]: 72.55%
- Pf_72h_%Growth_Rep2 [3, 17]: 29.88%

Compound: Eprinomectin
- Pf_120h_%Growth_Rep1 [1, 9]: 33.01%
- Pf_120h_%Growth_Rep2 [1, 9]: 14.57%
- Tg_72h_%Growth_Rep1 [2, 10]: 130.43%
- Tg_72h_%Growth_Rep2 [2, 10]: 107.67%
- Pf_72h_%Growth_Rep1 [3, 11]: 61.67%
- Pf_72h_%Growth_Rep2 [3, 11]: 29.66%

Compound: COc1ccc(C[C@H]2NC[C@H](O)[C@H]2OC(C)=O)cc1 [Anisomycin]
- Pf_120h_%Growth_Rep1 [1, 9]: 9.82%
- Pf_120h_%Growth_Rep2 [1, 9]: -15.33%
- Tg_72h_%Growth_Rep1 [2, 10]: 0.93%
- Tg_72h_%Growth_Rep2 [2, 10]: 1.73%
- Pf_72h_%Growth_Rep1 [3, 11]: 2.13%
- Pf_72h_%Growth_Rep2 [3, 11]: 2.45%
